Consider 1 compound from patent US20060078594A1, “Iron complex” (Conopco, Inc., d/b/a UNILEVER, priority 2004, published 2006).

A short description of this data set: Iron dialysability assay (in vitro dialysable iron from fortified dough). As to conditions: dough from whole-grain wheat flour fortified with 50 mg/kg iron; normalized to dough fortified with ferrous sulfate; means of 4-5 experiments; ** = significantly different from ferrous sulfate (p < 0.05).

Protocol: The crude mass was aliquoted and small lumps were formed (10 g±0.5 g) which were used for the iron dialysability assay.
All glassware and paddles were cleaned with 10% HNO3 (24 hours) and rinsed five times with Milli-Q® water. […] The resulting suspension was poured into a VanKel Vial and the blender beaker was rinsed twice with Milli-Q® water (20 mL) and the rinse water was added to the suspension. The stirring speed of the paddle was adjusted to 200 rpm at 37° C. […] The pH of the suspension was adjusted to 2.0 with 6N HCl and a Pepsin-HCl solution (5 mL) was added. […] A clean dialysis membrane (20 cm, Spectra/Por7, Molecular weight cut-off 8 kD) was filled with a determined amount of 0.1M NaCO3 solution and adjusted to a total volume of 25 mL with Milli-Q® water. The dialysis bag was placed in the Erlenmeyer flask containing aliquot (iii), and shaken at 37° C. at 100 beats/min for 30 minutes while the pH was being monitored. […] After that time, the contents of the dialysis bag were recovered for quantitative analysis of the iron content.
Total iron content of yeast and wheat flour was determined by inductively coupled plasma atomic emission spectrometry. […] The emission of the individual elements was measured at specific wavelengths and concentrations were quantified from standard solutions. […]

`O=S(=O)([O-])[O-].[Fe+2]` [Iron sulphate] returned a Relative availability of 1.0.
